# In patent publication US11512073B2, “Benzimidazole derivatives, pharmaceutical composition comprising the same, and use thereof” (Chongqing University of Arts and Sciences, priority 2020, dated 2022):
# What was measured:
# [1] = system: TNBC cells; assay: MTT cell viability assay, statements for both TNBC lines; type: cell-based, Human; conditions: MDA-MB-231 and MDA-MB-468; 24, 48 and 72 h
# Procedure: Compounds were dissolved in a hydrous dimethylsulfoxide (DMSO, Life technologies) to obtain a 50 mM stock solution, which was then added to the culture medium at a concentration range of 6.25-100 μM. […] Z-VAD-FMK was purchased from Selleckchem (Houston, Tex.); The reagents including 3-(4,5-dimethylthiazol-2-yl)-2,5-diphenyltetrazolium bromide (MTT), dimethyl sulfoxide (DMSO), penicillin, streptomycin, propidium iodide (PI) were purchased from Sigma-Aldrich (MO, USA); All the primary antibodies used in this study were from Cell Signaling Technology (MA, USA) and the secondary antibodies were from LI-COR Biosciences (NE, USA).
# Human triple negative breast cancer cell lines MDA-MB-231 and MDA-MB-468 were purchased from the American Type Culture Collection (ATCC, VA, USA). These cells were cultured in high-glucose DMEM (Gibco, USA) supplemented with 10% fetal bovine serum (FBS, Gibco) and 1% penicillin/streptomycin (Gibco) at 37° C. in a humidified incubator containing 5% CO2.
# The antiproliferative activity of compounds was measured with the MTT assay. […] The absorbance value was determined at 570 nm using a microplate reader (Bio-Tek, VT, USA). Data were analyzed by GraphPad Prism 6. […]
# [2] = system: MDA-MB-231 and MDA-MB-468 cells; assay: Mitochondrial membrane potential (JC-1) assay; type: cell-based, Human; conditions: 20 μM/L, 48 h
# Procedure: The JC-1 Assay Kit (Beyotime) was used to monitor the alteration of mitochondrial membrane potential as the manufacturer's instructions. MDA-MB-231 and MDA-MB-468 cells were seeded in six-well plates with an appropriate density (2×10^5/mL) and then treated with compound 7a at various concentrations (0, 5, 10, 20 μM) for 48 h. Then 100 μL of JC-1 staining solution was added into 1 mL of medium and incubated for 20 min at cell incubator. The BD Accuri™ C6 flow cytometry was used to analyze the samples. Each experiment was carried out in triplicate, and the results were expressed as the mean±SD.
# [3] = system: MDA-MB-231 xenograft; assay: Animal xenograft model; type: in vivo, NOD/SCID mice
# Procedure: For the in vivo assay, six-week-old female NOD/SCID mice weighing 16-20 g were used, which were maintained in the SPF (Specific Pathogen Free) laboratory animal environment and under a normal daily light/dark cycle. During the experiment, 1×10^7 MDA-MB-231 cells were suspended in 100 μL serum-free DMEM and injected subcutaneously into the left groin region of the mice. Tumor volume was measured regularly. On day 22 post-tumor implanted, the NOD/SCID mice were randomly divided into three groups (n=6) on the basis of their tumor volume to insure a similar starting tumor volume of all the groups. The appropriate dose of compound 7a (5 mg/kg, 15 mg/kg) dissolved in 100 μL solvent (10% ethanol, 40% PEG400 and 50% corn oil) was administered every 3 days by intraperitoneal injection when the xenograft tumor volume attained around 100 mm^3, while the control group received equal volume solvent every 3 days in a similar method. The tumor size was measured once every 3 days with a caliper, and tumor size was calculated using the standard formula (L×W^2)/2, where L and W represents the length and width, respectively. The mice were sacrificed on Day 46 (Day 25 after treatment), and the xenograft tumors were obtained and weighed. Then the tumor tissues were collected and divided into two portions, one was fixed in 4% PFA and embedded by paraffin for Hematoxylin & eosin (HE) and immunohistochemical staining, anther was performed immunoblotting.
# For immunohistochemistry, the embedded samples were sectioned and incubated with anti-Ki-67 overnight at 4° C. Then, the sections were incubated with HRP labeled secondary antibody and were observed under the Olympus BX73 microscope. Five fields were randomly selected to evaluate the positivity.
smiles,measurement,setting,value
O=C(NC1CCCCC1)c1[nH]cnc1-c1nc2ccccc2[nH]1 [Compound 7a],TNBC cell viability,[1],efficiently inhibited TNBC cell viability in a time- and dose-dependent manner
same,cells with reduced mitochondrial membrane potential,[2],~50%
same,tumor growth (tumor volume and weight),"[3]; 5 and 15 mg/Kg, intraperitoneal, after 24 days, dose dependent",considerably suppressed human TNBC tumor growth
same,size of harvested tumors,"[3]; 5 and 15 mg/kg, intraperitoneal, every 3 days",dramatically smaller than tumors from vehicle-treated control mice
same,"LC3B-II, p62, γH2AX and PARP in tumor tissue","[3]; immunoblotting of tumors, 5 and 15 mg/kg","concentration-dependent upregulation of LC3B-II, p62, γH2AX and PARP"
same,cell count (H&E) and Ki67 in tumor tissue,[3]; immunohistochemistry of tumors,significant decrease in cell count and Ki67
